# Experiments:
# labia and clitoris = assay: Infrared thermographic measurement of labial/clitoral temperature after topical administration; type: in vivo, Female white New Zealand rabbits; settings: for temperature of the labia and clitoris following the application: 50 μL
# Procedure: Female white New Zealand rabbits were anaesthetized with pentobarbitol sodium and placed in a supine position on a warming pad. The warming pad was connected to a temperature control unit to maintain the core (rectal) temperature to 38° C. The labia and clitoris were exposed and kept in position by taping the surrounding skin to the nearby abdominal area. The infrared camera (THERMACAM® SC 1000, Inframetrics Inc., North Billerica, Mass.) was focused on the labia and clitoris and the animal was covered with a chamber to maintain the heat loss due to air movement.
# After a steady baseline temperature was maintained and recorded for at least 10 minutes the compound (50 μL) was applied to the surface of the labia and clitoris using a syringe and 27 G needle. The compound was formulated in a mixture of dimethyl sulfoxide (25%) and poly(ethylene glycols) (75%). The poly(ethylene glycols) was a mixture of poly(ethylene glycol) 1450 and poly(ethylene glycol) 400 in a ratio of 1:9 respectively.
# The images from the infrared camera were electronically transferred to a PC computer and analyzed using TherMonitor 95, version 1.61 (Thermoteknix System Ltd., Mount pleasant,Cambridge, U. K.). Various color scales in the visible wave length are used to depict the temperature change of the recorded images.
# labial blood flow = assay: Laser doppler measurement of labial/clitoral blood flow after topical administration; type: in vivo, Female white New Zealand rabbits; settings: 5% or 10%, 50 μL topical in MIGLYOL; laser doppler probe; FIG. 6
# Procedure: Female white New Zealand rabbits were anaesthetized with Ketamine/Xylazine mixture and placed in supine position. A laser doppler probe (LASERFLO, BPM 403, Vasamedics, Inc., Minn.) was placed at the labium surface, and after steady baseline blood flow was maintained and recorded for at least 10 minutes, Example 5 (5%, 50 μL), 10% of Example 7 (10%, 50 μL), or vehicle alone (50 μL, MIGLYOL®) was applied to the surface of the labia and clitoris. […] The time course for the increase in blood flow (FIG. 6) was very similar to the time course for the increase in labial clitoral temperature (FIG. 5).
structure (smiles),measurement,setting,value
"CC(C)(CN1C(=O)C2C3C=CC(C3)C2C1=O)SN=O (centres unmarked) [Example 1, 4-Aza-4-(2-methyl-2-(nitrosothio)propyl)tricyclo(5.2.1.0<2,6>)dec-8-ene-3,5-dione]",temperature of the labia and clitoris following the application,"labia and clitoris; 5% topical, ~32° C. prior to application, FIG. 3, vehicle gave no increase",35 °C
"CC(C)(SN=O)C1COC(=O)N1 (centres unmarked) [Example 2, 4-(1-Methyl-1-(nitrosothio)ethyl)-1,3-oxazolidin-2-one]",temperature of the labia and clitoris following the application,"labia and clitoris; 10% topical, ~32° C. prior to application, FIG. 4",36 °C
same,melting point,,65 °C
"N[C@@H](CCC(=O)N[C@@H](CSN=O)C(=O)NCC(=O)O)C(=O)O [Example 7, N-(N-L-y-glutamyl-S-Nitroso-L-cysteinyl)glycine]",change of labial clitoral temperature,"labia and clitoris; 2.5%, 50 μL topical in MIGLYOL, FIG. 5",slight and transient increase
same,increase of temperature of the labia and clitoris,"labia and clitoris; 5%, 50 μL topical in MIGLYOL, FIG. 5",3.5 °C
same,increase of temperature of the labia and clitoris,"labia and clitoris; 10%, 50 μL topical in MIGLYOL, FIG. 5",5.5 °C
same,duration of sustained increase in labial blood flow,labial blood flow,> 60 min
same,increase in labial blood flow as compared to the baseline,labial blood flow,4 fold
"CC(C)CON=O [isobutyl nitrite, reference compound]",temperature of the labia and clitoris following the application,"labia and clitoris; 10% topical, ~30° C. prior to application, FIG. 1, vehicle gave no increase",32 °C
same,temperature of the labia and clitoris following the application,"labia and clitoris; 20% topical, ~31° C. prior to application, FIG. 2, vehicle gave no increase",34 °C
"CNC[C@H](O)c1cccc(O)c1 [phenylephrine, reference compound]",temperature after addition of the vasoconstrictor (decrease),"labia and clitoris; 10% applied 60 minutes after Example 2 (10%), monitored for 5 minutes, decrease from 36° C., FIG. 4",32 °C
